The target in one experiment is T1, AMP deaminase 3 (Homo sapiens, UniProt Q01432).
T1 sequence (Q01432 whole entry): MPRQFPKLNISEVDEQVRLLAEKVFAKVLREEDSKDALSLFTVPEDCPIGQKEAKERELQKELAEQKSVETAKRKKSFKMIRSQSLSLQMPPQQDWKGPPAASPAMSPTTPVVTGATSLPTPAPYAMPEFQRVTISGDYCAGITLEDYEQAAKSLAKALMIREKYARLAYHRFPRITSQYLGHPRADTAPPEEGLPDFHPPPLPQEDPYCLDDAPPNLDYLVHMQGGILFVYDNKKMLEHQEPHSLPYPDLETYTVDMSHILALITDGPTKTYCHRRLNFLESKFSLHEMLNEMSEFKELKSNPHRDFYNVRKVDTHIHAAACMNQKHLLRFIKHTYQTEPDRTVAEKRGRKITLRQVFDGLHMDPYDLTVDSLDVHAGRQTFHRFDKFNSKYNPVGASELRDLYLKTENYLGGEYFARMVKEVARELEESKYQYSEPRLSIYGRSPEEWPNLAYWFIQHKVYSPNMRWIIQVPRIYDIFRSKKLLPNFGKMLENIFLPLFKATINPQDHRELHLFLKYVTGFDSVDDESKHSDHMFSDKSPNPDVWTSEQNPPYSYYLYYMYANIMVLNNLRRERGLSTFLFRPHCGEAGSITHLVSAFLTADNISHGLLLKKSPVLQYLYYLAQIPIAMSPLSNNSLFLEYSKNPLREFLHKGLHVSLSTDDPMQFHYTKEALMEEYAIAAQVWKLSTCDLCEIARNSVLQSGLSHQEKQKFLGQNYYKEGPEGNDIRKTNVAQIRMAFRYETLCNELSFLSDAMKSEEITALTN
Nature of the experiment: Inhibitory activity against porcine heart or recombinant human E-type AMPDA.

The next experiment concerns the target T2, Adenosine deaminase (Bos taurus, UniProt P56658).
T2 sequence (P56658 whole entry): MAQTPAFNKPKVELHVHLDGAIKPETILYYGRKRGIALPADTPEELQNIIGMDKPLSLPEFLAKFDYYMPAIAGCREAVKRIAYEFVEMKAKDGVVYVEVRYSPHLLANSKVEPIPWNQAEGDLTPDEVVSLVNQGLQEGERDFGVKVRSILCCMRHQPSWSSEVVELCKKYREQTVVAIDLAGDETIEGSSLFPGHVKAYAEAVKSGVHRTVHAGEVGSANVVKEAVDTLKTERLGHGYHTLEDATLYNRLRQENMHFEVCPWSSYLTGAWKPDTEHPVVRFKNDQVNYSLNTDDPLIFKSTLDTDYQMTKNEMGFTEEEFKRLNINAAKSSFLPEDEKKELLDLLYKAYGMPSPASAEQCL
Nature of the experiment: Inhibitory activity against calf intestinal Adenosine deaminase (ADA).

`CC(CCCCn1cnc2c1NC=NCC2O)(C(=O)O)C(=O)O` (centres undefined): the Ki at AMP deaminase 3 was 6 µM; at Adenosine deaminase, greater than 7.5 µM.
For `CC(CCCCn1cnc2c1NC=NCC2O)(C(=O)OCc1ccccc1)C(=O)OCc1ccccc1` (centres undefined), the Ki is 5.2 µM on AMP deaminase 3 and greater than 7.5 µM on Adenosine deaminase.
As for `CCOC(=O)C(CCCCn1cnc2c1N=CNCC2O)(Cc1ccccc1)C(=O)OCC` (centres undefined), the Ki on AMP deaminase 3 is 2.6 µM; at Adenosine deaminase, greater than 7.5 µM.
As to `CCOC(=O)C(CCCCn1cnc2c1N=CNCC2O)(Cc1ccccc1C(F)(F)F)C(=O)OCC` (centres undefined), the Ki was 0.36 µM on AMP deaminase 3 and greater than 7.5 µM on Adenosine deaminase.
In the same order, the values of `CC(CCCCn1cnc2c1N=CNCC2O)(C(=O)O)C(=O)NCCc1ccccc1` (centres undefined) are 2.1 µM and greater than 7.5 µM.
Consider `CC(CCCCn1cnc2c1NC=NCC2O)(C(N)=O)C(=O)O` (centres undefined), for which the values for the inhibition constant (Ki) on AMP deaminase 3 and at Adenosine deaminase were 7.8 µM and greater than 7.5 µM, respectively.
Turning to `O=C(O)C(CCCCn1cnc2c1NC=NCC2O)(Cc1ccccc1C(F)(F)F)C(=O)O` (centres undefined), the inhibitory constant (Ki) was 0.041 µM at AMP deaminase 3 and greater than 7.5 µM at Adenosine deaminase.
In the same order, the values of `O=C(O)C(CCCCn1cnc2c1NC=NCC2O)(Cc1ccc(C(F)(F)F)cc1)C(=O)O` (centres undefined) are 0.04 µM and greater than 7.5 µM.
With `CC(CCCCn1cnc2c1NC=NCC2O)(C(=O)O)C(=O)NC1CCCCC1` (centres undefined), the inhibition constant Ki on AMP deaminase 3 is 5.2 µM; on Adenosine deaminase, greater than 7.5 µM.
As for `O=C(O)C(CCCCn1cnc2c1NC=NCC2O)C(=O)O` (centres undefined), the inhibition constant Ki is 5.1 µM on AMP deaminase 3 and greater than 7.5 µM at Adenosine deaminase.
In the same order, the values of `CC(CCCCn1cnc2c1NC=NCC2O)(Cc1cccc(C(F)(F)F)c1)C(=O)O` (centres undefined) are 1.2 µM and greater than 7.5 µM.
Turning to `O=C(O)CCCCCn1cnc2c1N=CNCC2O` (centres undefined), at AMP deaminase 3, the inhibition constant (Ki) was determined as 4.2 µM.
In the case of `O=C(OCc1ccccc1)C(CCCCn1cnc2c1N=CNCC2O)(Cc1ccccc1C(F)(F)F)C(=O)OCc1ccccc1` (centres undefined), the inhibition constant Ki at AMP deaminase 3 was 0.25 µM; at Adenosine deaminase, greater than 7.5 µM.
For `O=C(O)C(CCCCn1cnc2c1NC=NCC2O)(Cc1cccc(C(F)(F)F)c1)C(=O)O` (centres undefined), the figures for the Ki at AMP deaminase 3 and at Adenosine deaminase were 0.029 µM and greater than 7.5 µM, respectively.
Take `CC(CCCCn1cnc2c1NC=NCC2O)(C(=O)O)C(=O)OCc1ccccc1` (centres undefined): the Ki at AMP deaminase 3 was 0.9 µM; on Adenosine deaminase it was greater than 7.5 µM.
Regarding `CCOC(=O)C(C)(CCCCn1cnc2c1NC=NCC2O)C(=O)OCC` (centres undefined), the Ki on AMP deaminase 3 was 44.8 µM; at Adenosine deaminase, greater than 500 µM.
For `O=C(O)C(CCCCn1cnc2c1N=CNCC2O)C(=O)NCc1ccc(Cl)cc1` (centres undefined), the results for the Ki at AMP deaminase 3 and on Adenosine deaminase were 1.3 µM and greater than 7.5 µM, respectively.
For the compound `O=C(O)C(CCCCn1cnc2c1N=CNCC2O)C(=O)NCc1ccccc1` (centres undefined), the Ki at AMP deaminase 3 was 2.4 µM; on Adenosine deaminase it was greater than 7.5 µM.
Take `O=C(O)C(CCCCn1cnc2c1N=CNCC2O)C(=O)OCc1ccccc1` (centres undefined): the Ki was 0.36 µM on AMP deaminase 3 and greater than 7.5 µM at Adenosine deaminase.
With `O=C(O)C(CCCCn1cnc2c1N=CNCC2O)(Cc1ccccc1)C(=O)O` (centres undefined), the Ki on AMP deaminase 3 is 0.17 µM; on Adenosine deaminase, greater than 7.5 µM.

The values above are taken from ChEMBL document CHEMBL1133163, “AMP deaminase inhibitors. 4. Further N3-substituted coformycin aglycon analogues: N3-alkylmalonates as ribose 5'-monophosphate mimetics” (J Med Chem, 2000).
